Tests used:
[1] = system: PD1-ss+10aa/Gaussia Luciferase; assay: Dox-Induced PD1-ss-Gluc Assay; type: cell-based; details: Flp-In 293 T-REx cells, 24 hours with doxycycline; Table 1; read-out: 24 hr Dox Inducible PD1ssGluc 293FRT/TO: Mean IC50
Procedure, shortened: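 Compounds were added in DMSO/media with doxycycline and incubated at 37 °C, 5% CO2, on 293 T-REx cells plated one day earlier. These cells stably express, under tetracycline-regulated control, a Gaussia luciferase fused to the PD1 signal peptide plus 10 residues. Structures drawn without stereochemistry were tested as stereoisomer mixtures.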

[2] = system: IL-2-FL/Gaussia Luciferase; assay: Dox Inducible IL2-FL-Gluc Assay; type: cell-based; details: Table 1; for IC50: Flp-In 293 T-REx cells, 24 hours with doxycycline, read-out: 24 hr Dox Inducible IL2FLGluc 293FRT/TO: Mean IC50; for 24 hr Dox Inducible IL2FLGluc 293FRT/TO: IL2/PD1: ratio of IC50s IL2/PD1
Procedure, shortened: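 Compounds in DMSO/medium with doxycycline were applied to a 293 T-REx stable line expressing an IL-2 (aa 1-153)–Gaussia luciferase fusion under tetracycline-regulated control, cells seeded one day earlier; incubation at 37 °C, 5% CO2. Structures drawn without stereochemistry were tested as stereoisomer mixtures.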

CD47(ss + 10)Gluc = assay: Dox-Induced CD47-ss-Gluc Assay; type: cell-based; details: Flp-In 293 T-REx cells, 24 hours with doxycycline; Table 1; read-out: 24 hr Dox Inducible CD47(ss + 10)Gluc 293FRT/TO: Mean IC50
[3] = system: IL6R-ss+10aa/Gaussia Luciferase; assay: Dox-induced IL-6R-ss-Gluc Assay; type: cell-based; details: Table 1; for IC50: Flp-In 293 T-REx cells, 24 hours with doxycycline, read-out: 24hr Dox Inducible IL6R(ss + 10)Gluc 293FRT/TO: Mean IC50; for 24hr Dox Inducible IL6R(ss + 10)Gluc 293FRT/TO: IL6R/PD1: ratio of IC50s IL6R/PD1
Procedure, shortened: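 Flp-In 293 T-REx cells stably carrying a doxycycline-inducible IL6R signal sequence+10 aa fused to Gaussia luciferase. Cells plated the day before; compound dilutions added in DMSO/media containing doxycycline and incubated at 37 °C, 5% CO2.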

[4] = system: multiple myeloma cell line NCI-H929; assay: H929 Cell Viability Assay; type: cell-based, human; details: Homo sapiens; NCI-H929 cells, 48 hours, Celltiter-Glo; read-out: 48 hr H929 Viability Celltiter-Glo: Mean EC50
Procedure, shortened: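 Luminescent CellTiter-Glo read-out of viability after a 48 h exposure (37° C, 5% CO2) of NCI-H929 myeloma cells to compound dilutions in RPMI 1640 plus 10% FBS. Data for structures drawn without stereochemistry refer to stereoisomer mixtures.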

[5] = system: multiple myeloma cell line U266B1; assay: U266 Cell Viability Assay; type: cell-based; details: Homo sapiens, U-266; U266B1 cells, 48 hours, Celltiter-Glo; read-out: 48 hr U266 Viability Celltiter-Glo: Mean EC50
Procedure, shortened: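 CellTiter-Glo luminescence was read after a 48 h compound exposure (37 °C, 5% CO2) of human U266B1 myeloma cells grown in 10% FBS-supplemented RPMI 1640. Data for structures shown without defined stereochemistry refer to stereoisomer mixtures.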

[6] = Liver Microsome Stability Assay, mouse; type: in vitro ADME; details: mouse liver microsomes 1.0 mg/mL, 1.0 uM compound, 37° C., 1 mM NADPH
Procedure, shortened: (§1)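 Stability was judged from samples quenched at 0 and 30 minutes after incubating 1.0 uM compound with 1.0 mg/mL liver microsomes at 37° C, plus or minus 1 mM NADPH, in 0.1 M potassium phosphate containing 0.4% DMSO.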

[7] = Liver Microsome Stability Assay, rat; type: in vitro ADME; details: rat liver microsomes 1.0 mg/mL, 1.0 uM compound, 37° C., 1 mM NADPH
Procedure, shortened: as §1

[8] = Liver Microsome Stability Assay, monkey; type: in vitro ADME; details: monkey liver microsomes 1.0 mg/mL, 1.0 uM compound, 37° C., 1 mM NADPH
Procedure, shortened: as §1

[9] = Liver Microsome Stability Assay, human; type: in vitro ADME; details: human liver microsomes 1.0 mg/mL, 1.0 uM compound, 37° C., 1 mM NADPH
Procedure, shortened: as §1

Row | IC50 [1] [µM] | IC50 [2] [µM] | IC50 (CD47(ss + 10)Gluc) [µM] | IC50 [3] [µM] | EC50 [4] [µM] | EC50 [5] [µM] | Liver Microsome Stability (Multiple Species): Mouse - % Remaining after 30 min w/ NADPH (%) [6] [%] | Liver Microsome Stability (Multiple Species): Rat - % Remaining after 30 min w/ NADPH (%) [7] [%] | Liver Microsome Stability (Multiple Species): Monkey - % Remaining after 30 min w/ NADPH (%) [8] [%] | Liver Microsome Stability (Multiple Species): Human - % Remaining after 30 min w/ NADPH (%) [9] [%] | Structure (SMILES) | 24 hr Dox Inducible IL2FLGluc 293FRT/TO: IL2/PD1 [2] | 24hr Dox Inducible IL6R(ss + 10)Gluc 293FRT/TO: IL6R/PD1 [3]
1 | 0.034 | > 25 | 5.53 | > 25 | > 25 | > 25 | 69 | 33 | 9 | 16 | [2H]C([2H])([2H])Oc1cc(C(=O)Nc2nc(/C=C/c3ncn(C4CC4)c3Cl)cs2)n(Cc2ccnc(F)c2F)c1 [Compound A22, (E)-N-(4-(2-(5-chloro-1-cyclopropyl-1H-imidazol-4-yl)vinyl)thiazol-2-yl)-1-((2,3-difluoropyridin-4-yl)methyl)-4-(methoxy-d3)-1H-pyrrole-2-carboxamide] | >740 | >741
2 | 0.037 | > 25 | > 25 | > 25 | > 25 | > 25 | 55 | 31 | 8 | 20 | Cc1c(Cn2cc(OC(F)F)cc2C(=O)Nc2nc(/C=C/c3ncn(C4CC4)c3Cl)cs2)ccnc1F [Compound A23, (E)-N-(4-(2-(5-chloro-1-cyclopropyl-1H-imidazol-4-yl)vinyl)thiazol-2-yl)-4-(difluoromethoxy)-1-((2-fluoro-3-methylpyridin-4-yl)methyl)-1H-pyrrole-2-carboxamide] | >540 | >680
3 | 0.008 | 11.5 | 5.53 | 9.97 | > 25 | > 25 | 77 | 30 | 12 | 20 | Cc1cnc(F)cc1Cn1cc(OC(F)F)cc1C(=O)Nc1nc(/C=C/c2ncn(C3CC3)c2Cl)cs1 [Compound A24, (E)-N-(4-(2-(5-chloro-1-cyclopropyl-1H-imidazol-4-yl)vinyl)thiazol-2-yl)-4-(difluoromethoxy)-1-((2-fluoro-5-methylpyridin-4-yl)methyl)-1H-pyrrole-2-carboxamide] | 1100.0 | 1283
4 | 0.877 | > 25 | > 25 | > 25 | > 25 | > 25 | 70 | 40 | 16 | 29 | Cc1cnc(F)c(C)c1Cn1cc(OC(F)F)cc1C(=O)Nc1nc(/C=C/c2ncn(C3CC3)c2Cl)cs1 [Compound A26, (E)-N-(4-(2-(5-chloro-1-cyclopropyl-1H-imidazol-4-yl)vinyl)thiazol-2-yl)-4-(difluoromethoxy)-1-((2-fluoro-3,5-dimethylpyridin-4-yl)methyl)-1H-pyrrole-2-carboxamide] | >22 | 28
5 | 0.009 | 3.09 | 2.55 | 2.11 | 17.8 | > 25 | 70 | 2 | 47 | 78 | N#Cc1c(/C=C/c2csc(NC(=O)c3cc(OC(F)F)cn3Cc3ccnc(F)c3)n2)ncn1C1CC1 [Compound A27, (E)-N-(4-(2-(5-cyano-1-cyclopropyl-1H-imidazol-4-yl)vinyl)thiazol-2-yl)-4-(difluoromethoxy)-1-((2-fluoropyridin-4-yl)methyl)-1H-pyrrole-2-carboxamide] | 340.0 | 235
6 | 0.022 | 1.51 | 1.4 | 1.49 | > 25 | 15.5 | 67 | 2 | 9 | 22 | N#Cc1c(/C=C/c2csc(NC(=O)c3cc(Cl)cn3Cc3ccnc(F)c3)n2)ncn1C1CC1 [Compound A28, (E)-4-chloro-N-(4-(2-(5-cyano-1-cyclopropyl-1H-imidazol-4-yl)vinyl)thiazol-2-yl)-1-((2-fluoropyridin-4-yl)methyl)-1H-pyrrole-2-carboxamide] | 69.0 | 68
7 | 0.048 | > 25 | > 25 | > 25 | > 25 | > 25 | 21 | 1 | 43 | 51 | O=C(Nc1nc(/C=C/c2ncn(C3CC3)c2Cl)cs1)c1cc(C(F)F)cn1Cc1ccnc(F)c1 [Compound A29, (E)-N-(4-(2-(5-chloro-1-cyclopropyl-1H-imidazol-4-yl)vinyl)thiazol-2-yl)-4-(difluoromethyl)-1-((2-fluoropyridin-4-yl)methyl)-1H-pyrrole-2-carboxamide] | >650 | >517
8 | 0.007 | 2.13 | 2.39 | 2.16 | > 25 | > 25 | 44 | <1 | 70 | 63 | O=C(Nc1nc(/C=C/c2ncn(C3CC3)c2Cl)cs1)c1cc(C(F)(F)F)cn1Cc1ccnc(F)c1 [Compound A30, (E)-N-(4-(2-(5-chloro-1-cyclopropyl-1H-imidazol-4-yl)vinyl)thiazol-2-yl)-1-((2-fluoropyridin-4-yl)methyl)-4-(trifluoromethyl)-1H-pyrrole-2-carboxamide] | 290.0 | 292

Reference: patent US20250171434A1, “SEC61 INHIBITORS AND USE THEREOF” (KEZAR LIFE SCIENCES, INC., priority 2022, published 2025)
